The source made the active and inactive calls.
What was measured:
[1] = biological target: T1, Microphthalmia-associated transcription factor (Homo sapiens, UniProt O75030); experiment: reducers of TRPM1 reporter luminescence, concentration series – cell-based, SK-MEL-5, cherry-picked, set 3, MITF inhibitor project, dose response (AID 493073); type: functional;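 further: SK-MEL-5 melanoma cells with luciferase driven by the MITF target TRPM1 promoter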
T1 sequence (O75030 whole entry): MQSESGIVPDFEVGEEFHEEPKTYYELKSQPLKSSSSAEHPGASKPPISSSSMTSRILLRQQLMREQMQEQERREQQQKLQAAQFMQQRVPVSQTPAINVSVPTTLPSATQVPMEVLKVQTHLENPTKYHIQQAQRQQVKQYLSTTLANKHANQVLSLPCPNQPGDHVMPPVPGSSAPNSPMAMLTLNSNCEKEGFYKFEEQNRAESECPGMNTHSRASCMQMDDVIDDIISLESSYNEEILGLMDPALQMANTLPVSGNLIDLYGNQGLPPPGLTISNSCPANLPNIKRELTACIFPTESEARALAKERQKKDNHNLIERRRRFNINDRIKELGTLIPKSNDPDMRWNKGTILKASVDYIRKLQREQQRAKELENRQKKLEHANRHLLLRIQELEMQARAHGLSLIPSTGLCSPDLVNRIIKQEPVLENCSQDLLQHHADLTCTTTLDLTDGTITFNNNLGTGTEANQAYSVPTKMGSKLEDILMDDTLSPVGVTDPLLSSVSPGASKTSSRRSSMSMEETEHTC

[2] = biological target: Latent membrane protein 1 (Human herpesvirus 4 (strain B95-8), UniProt P03230); experiment: LMP1 TES1 pathway selectivity over dsRED control – imaging, HEK293T, dual-color eGFP/dsRED, cherry-picks, selectivity assay for LMP1 NF-kB inhibitor project, dose response (AID 588398); type: functional, cell-based
[3] = A cytotoxicity screen of small molecule inhibitors of the PhoP region in Salmonella typhi identified in the primary screen. [Related pubchem assays: 1850, 1864, 1985 ]; type: functional
[4] = test system: HEK293; experiment: EBV LMP1 TES2 canonical NF-kB signalling blockers – cell-based, HEK293, luciferase, cherry-pick, dose response (AID 588343); type: functional; settings: Homo sapiens
[5] = biological target: Aurora kinase A (Homo sapiens, UniProt O14965); type: functional;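 further: value from the Navigating the Kinome kinase panel profiling, panel entry STK6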
[6] = biological target: High affinity nerve growth factor receptor (Homo sapiens, UniProt P04629); type: functional;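 further: NTRK1 tested as one member of a kinome-wide profiling panel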
[7] = biological target: T2, Caspase-3 (Homo sapiens, UniProt P42574); experiment: SAR Analysis of small molecule inhibitors of Sentrin-specific proteases (SENPs) using a Caspase-3 Selectivity assay. [Related pubchem assays (depositor defined):AID2540, AID2599, AID434973, AID489001]; type: functional
T2 sequence (P42574 whole entry): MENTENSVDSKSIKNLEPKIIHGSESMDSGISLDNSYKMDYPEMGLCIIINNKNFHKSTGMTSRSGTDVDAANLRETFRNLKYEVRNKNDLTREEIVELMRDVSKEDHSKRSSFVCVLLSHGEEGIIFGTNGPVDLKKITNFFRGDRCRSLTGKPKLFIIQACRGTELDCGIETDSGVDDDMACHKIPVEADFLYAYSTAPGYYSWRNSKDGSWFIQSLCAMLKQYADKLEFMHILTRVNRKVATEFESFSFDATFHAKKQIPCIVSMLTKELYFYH

[8] = biological target: T3, Sentrin-specific protease 8 (Homo sapiens, UniProt Q96LD8); experiment: inhibition of sentrin protease 8 – biochemical, luminescence, set 2, SAR follow-up (AID 588601); type: functional
T3 sequence (Q96LD8 whole entry): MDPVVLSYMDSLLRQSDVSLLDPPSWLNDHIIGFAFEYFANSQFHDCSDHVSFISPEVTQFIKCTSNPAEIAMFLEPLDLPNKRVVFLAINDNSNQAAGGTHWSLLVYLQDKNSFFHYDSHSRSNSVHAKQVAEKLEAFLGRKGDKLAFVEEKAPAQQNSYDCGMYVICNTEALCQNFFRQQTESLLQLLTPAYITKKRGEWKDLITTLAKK

[9] = biological target: T3, Sentrin-specific protease 8; experiment: inhibition of human SENP8 cleavage activity – biochemical, luminescence, SAR follow-up (AID 504501); type: functional
[10] = biological target: T4, Sentrin-specific protease 6 (Homo sapiens, UniProt Q9GZR1); experiment: SAR Analysis of small molecule inhibitors of Sentrin-specific protease 6 (SENP6) using a Luminescent assay. [Related pubchem assays (depositor defined):AID2582, AID2599]; type: functional
T4 sequence (Q9GZR1 whole entry): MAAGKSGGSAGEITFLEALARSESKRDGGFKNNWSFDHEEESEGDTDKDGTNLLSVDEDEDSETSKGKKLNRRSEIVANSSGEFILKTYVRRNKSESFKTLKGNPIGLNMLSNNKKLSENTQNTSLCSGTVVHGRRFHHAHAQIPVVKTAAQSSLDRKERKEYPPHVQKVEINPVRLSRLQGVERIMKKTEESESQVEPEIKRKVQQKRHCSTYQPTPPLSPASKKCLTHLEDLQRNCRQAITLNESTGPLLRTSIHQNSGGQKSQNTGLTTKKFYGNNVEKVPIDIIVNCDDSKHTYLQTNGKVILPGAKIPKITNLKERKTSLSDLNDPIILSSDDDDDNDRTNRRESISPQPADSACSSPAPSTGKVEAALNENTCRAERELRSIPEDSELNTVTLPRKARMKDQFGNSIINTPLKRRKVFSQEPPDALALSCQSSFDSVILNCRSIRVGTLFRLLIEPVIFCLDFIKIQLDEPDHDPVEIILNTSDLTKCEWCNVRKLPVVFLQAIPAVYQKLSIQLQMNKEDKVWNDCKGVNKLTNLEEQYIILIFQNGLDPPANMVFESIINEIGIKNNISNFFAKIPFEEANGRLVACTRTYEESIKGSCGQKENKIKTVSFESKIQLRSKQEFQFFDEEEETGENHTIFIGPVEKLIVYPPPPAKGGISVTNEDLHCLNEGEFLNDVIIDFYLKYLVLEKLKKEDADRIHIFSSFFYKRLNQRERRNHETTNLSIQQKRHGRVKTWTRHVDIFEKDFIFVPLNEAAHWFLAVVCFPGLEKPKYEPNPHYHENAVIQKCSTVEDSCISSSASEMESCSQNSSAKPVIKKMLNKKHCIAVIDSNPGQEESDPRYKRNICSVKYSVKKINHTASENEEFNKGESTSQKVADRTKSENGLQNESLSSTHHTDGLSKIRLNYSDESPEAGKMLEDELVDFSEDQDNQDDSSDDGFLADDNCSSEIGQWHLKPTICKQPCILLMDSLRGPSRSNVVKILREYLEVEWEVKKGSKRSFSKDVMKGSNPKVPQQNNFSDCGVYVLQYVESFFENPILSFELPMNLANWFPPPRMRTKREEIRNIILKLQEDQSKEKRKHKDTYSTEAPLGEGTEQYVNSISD

[11] = biological target: T2, Caspase-3; experiment: inhibition of recombinant caspase-3 activity – biochemical, luminescence, set 2, selectivity assay for SENP protease inhibitor project, SAR follow-up (AID 588599); type: functional
[12] = biological target: T5, Sentrin-specific protease 7 (Homo sapiens, UniProt Q9BQF6); experiment: inhibition of human SENP7 cleavage activity – biochemical, luminescence, SAR follow-up (AID 504497); type: functional
T5 sequence (Q9BQF6 whole entry): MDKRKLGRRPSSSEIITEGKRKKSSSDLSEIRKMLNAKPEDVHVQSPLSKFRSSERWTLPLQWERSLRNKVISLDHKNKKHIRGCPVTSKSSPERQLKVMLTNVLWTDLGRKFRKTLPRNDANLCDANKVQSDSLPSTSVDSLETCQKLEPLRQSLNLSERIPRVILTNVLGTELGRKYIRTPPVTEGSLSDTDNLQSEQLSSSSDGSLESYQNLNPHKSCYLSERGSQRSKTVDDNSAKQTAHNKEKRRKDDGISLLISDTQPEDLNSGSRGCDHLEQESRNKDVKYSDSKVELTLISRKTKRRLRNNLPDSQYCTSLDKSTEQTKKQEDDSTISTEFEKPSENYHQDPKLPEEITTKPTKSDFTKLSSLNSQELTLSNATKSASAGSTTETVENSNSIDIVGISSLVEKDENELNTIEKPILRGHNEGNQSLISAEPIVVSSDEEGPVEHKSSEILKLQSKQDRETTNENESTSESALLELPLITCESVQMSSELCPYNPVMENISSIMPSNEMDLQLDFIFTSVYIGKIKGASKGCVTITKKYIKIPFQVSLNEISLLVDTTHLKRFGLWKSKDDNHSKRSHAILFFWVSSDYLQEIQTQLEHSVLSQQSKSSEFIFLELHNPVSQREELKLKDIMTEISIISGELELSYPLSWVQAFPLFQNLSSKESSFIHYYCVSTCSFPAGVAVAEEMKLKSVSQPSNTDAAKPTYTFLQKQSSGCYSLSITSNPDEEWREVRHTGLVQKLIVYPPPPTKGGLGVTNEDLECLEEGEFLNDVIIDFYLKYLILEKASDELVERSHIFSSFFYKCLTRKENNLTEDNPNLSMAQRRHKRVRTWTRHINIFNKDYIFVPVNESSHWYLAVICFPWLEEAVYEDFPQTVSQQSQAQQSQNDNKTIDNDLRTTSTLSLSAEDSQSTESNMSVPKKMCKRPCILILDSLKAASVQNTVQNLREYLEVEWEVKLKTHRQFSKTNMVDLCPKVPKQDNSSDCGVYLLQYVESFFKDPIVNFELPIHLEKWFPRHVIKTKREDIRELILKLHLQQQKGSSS

[13] = biological target: T5, Sentrin-specific protease 7; experiment: inhibition of human SENP7 cleavage activity – biochemical, luminescence, set 2, SAR follow-up (AID 588600); type: functional
[14] = biological target: Sphingosine 1-phosphate receptor 2 (Homo sapiens, UniProt O95136); experiment: Late-stage fluorescence-based dose-response cell-based counterscreen assay to identify agonists of the Sphingosine 1-Phosphate Receptor 3 (S1P3): Sphingosine 1-Phosphate Receptor 2 (S1P2) agonist assay.; type: functional
[15] = biological target: T6, Sphingosine 1-phosphate receptor 4 (Homo sapiens, UniProt O95977); experiment: Late-stage fluorescence-based dose-response cell-based counterscreen assay to identify agonists of the Sphingosine 1-Phosphate Receptor 3 (S1P3): Sphingosine 1-Phosphate Receptor 4 (S1P4) agonist assay.; type: functional
T6 sequence (O95977 whole entry): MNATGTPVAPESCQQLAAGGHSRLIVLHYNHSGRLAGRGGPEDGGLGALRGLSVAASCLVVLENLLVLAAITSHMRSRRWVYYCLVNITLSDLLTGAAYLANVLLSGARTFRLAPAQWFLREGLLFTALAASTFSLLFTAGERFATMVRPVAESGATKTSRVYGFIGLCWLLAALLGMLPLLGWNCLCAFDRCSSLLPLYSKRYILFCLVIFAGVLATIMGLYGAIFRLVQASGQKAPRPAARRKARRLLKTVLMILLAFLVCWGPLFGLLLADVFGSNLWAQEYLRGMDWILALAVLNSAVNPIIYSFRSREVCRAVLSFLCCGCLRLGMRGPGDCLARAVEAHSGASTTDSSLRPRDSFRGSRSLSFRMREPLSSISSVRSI

Sequence of Aurora kinase A (O14965 whole entry): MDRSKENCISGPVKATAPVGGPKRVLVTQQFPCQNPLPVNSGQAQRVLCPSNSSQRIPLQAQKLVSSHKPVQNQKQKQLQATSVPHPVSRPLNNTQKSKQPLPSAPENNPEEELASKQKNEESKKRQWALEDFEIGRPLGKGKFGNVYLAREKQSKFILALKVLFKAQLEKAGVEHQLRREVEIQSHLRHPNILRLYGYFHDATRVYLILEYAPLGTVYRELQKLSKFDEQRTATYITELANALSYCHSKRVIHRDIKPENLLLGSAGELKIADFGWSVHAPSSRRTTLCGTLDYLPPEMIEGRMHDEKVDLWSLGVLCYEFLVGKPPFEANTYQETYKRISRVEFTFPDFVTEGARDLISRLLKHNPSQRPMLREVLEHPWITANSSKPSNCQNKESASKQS
Sequence of High affinity nerve growth factor receptor (P04629 whole entry): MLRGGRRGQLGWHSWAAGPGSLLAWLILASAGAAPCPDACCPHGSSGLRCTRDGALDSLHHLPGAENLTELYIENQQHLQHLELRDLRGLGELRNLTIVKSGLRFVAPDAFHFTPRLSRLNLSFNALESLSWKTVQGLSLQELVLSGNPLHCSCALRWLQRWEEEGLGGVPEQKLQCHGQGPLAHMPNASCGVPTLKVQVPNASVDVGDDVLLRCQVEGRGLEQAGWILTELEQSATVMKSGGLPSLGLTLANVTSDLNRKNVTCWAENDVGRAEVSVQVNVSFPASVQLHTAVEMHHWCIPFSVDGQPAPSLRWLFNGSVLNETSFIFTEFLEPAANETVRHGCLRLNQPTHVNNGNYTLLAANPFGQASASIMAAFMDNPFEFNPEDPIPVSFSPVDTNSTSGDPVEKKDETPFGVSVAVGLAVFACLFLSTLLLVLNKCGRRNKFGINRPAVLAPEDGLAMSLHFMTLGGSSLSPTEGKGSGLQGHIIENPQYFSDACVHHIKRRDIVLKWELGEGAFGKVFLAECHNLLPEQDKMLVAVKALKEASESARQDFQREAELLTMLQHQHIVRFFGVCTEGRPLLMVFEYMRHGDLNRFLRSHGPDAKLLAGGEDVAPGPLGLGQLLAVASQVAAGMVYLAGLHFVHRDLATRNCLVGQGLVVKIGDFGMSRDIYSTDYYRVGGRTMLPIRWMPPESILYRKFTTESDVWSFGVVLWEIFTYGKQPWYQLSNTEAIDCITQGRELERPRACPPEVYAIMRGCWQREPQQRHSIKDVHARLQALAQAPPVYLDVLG
Sequence of Sphingosine 1-phosphate receptor 2 (O95136 whole entry): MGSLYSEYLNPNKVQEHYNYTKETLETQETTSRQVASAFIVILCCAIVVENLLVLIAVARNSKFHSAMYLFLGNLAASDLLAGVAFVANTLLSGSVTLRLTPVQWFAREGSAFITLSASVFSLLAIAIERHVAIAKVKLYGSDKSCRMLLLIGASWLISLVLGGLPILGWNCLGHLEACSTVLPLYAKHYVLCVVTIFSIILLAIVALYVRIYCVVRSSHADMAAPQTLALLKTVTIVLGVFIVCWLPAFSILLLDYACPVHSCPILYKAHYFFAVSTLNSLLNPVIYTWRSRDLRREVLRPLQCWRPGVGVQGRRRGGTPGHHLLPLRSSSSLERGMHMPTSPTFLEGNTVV
Sequence of Latent membrane protein 1 (P03230 whole entry): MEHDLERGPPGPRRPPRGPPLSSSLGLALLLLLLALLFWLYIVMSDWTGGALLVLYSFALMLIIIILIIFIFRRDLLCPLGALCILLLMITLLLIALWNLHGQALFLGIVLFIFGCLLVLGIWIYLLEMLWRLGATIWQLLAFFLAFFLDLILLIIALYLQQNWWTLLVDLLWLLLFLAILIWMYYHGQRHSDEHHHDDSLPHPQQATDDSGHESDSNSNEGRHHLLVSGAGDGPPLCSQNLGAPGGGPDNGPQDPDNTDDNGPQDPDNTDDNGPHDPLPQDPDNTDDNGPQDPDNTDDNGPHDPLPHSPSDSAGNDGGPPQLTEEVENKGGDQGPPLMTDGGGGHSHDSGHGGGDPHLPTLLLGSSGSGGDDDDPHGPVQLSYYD

## Cc1cc(NCCCn2ccnc2)n2ncc(-c3ccccc3)c2n1
[1]
  AC50: 11 µM (active)
[2]
  AC50: 206 µM (active)
[3]
  EC50: > 50 µM (active)
[4]
  AC50: 2.56 µM (active)

## CCOC(=O)C(C(N)=O)C(=S)Nc1ccc(C)cc1 (stereo not given)
[5]
  Ki: 0.0501 µM (active)
[6]
  Ki: 5.01 µM (active)

## Fc1ccc(-c2noc(/C=C/c3ccccc3)n2)cc1
[7]
  IC50: 18 µM (active)
[8]
  IC50: 2.98 µM (active)
[9]
  IC50: > 99 µM (inactive)
[10]
  IC50: > 99 µM (inactive)
[11]
  IC50: 20.5 µM (active)
[12]
  IC50: 8.8 µM (active)
[13]
  IC50: 3.38 µM (active)

## CCOc1ccc(-c2nc(C(=O)N(C3CCCCC3)C3CCCCC3)co2)cc1OCC
[14]
  EC50: > 50 µM (inactive)
[15]
  EC50: > 50 µM (inactive)

Reference: ChEMBL document CHEMBL1201862, “PubChem BioAssay data set” (2004)
